Assay results reported in US5171837A, “Peptide capable of binding interleukin 6 and an adsorbent comprising the peptide immobilized on a carrier” (Kuraray Co., Ltd., priority 1989, dated 1992).
Blank lines part the entries; values can stand above or below the molecule they belong to. Non-standard residues stand in square brackets, D forms with d. Residues, ends and D or L forms follow the SMILES beside them. No end group written: not given here. *: point of attachment. X1 = NCCCCCCCCCCCCCCCCCC(=O)*; 12Ado = NCCCCCCCCCCCC(=O)O

Target: T1, IL-6 (Homo sapiens, UniProt P05231)
T1 construct: purchased Genzyme Corp
T1 sequence (P05231 30-212): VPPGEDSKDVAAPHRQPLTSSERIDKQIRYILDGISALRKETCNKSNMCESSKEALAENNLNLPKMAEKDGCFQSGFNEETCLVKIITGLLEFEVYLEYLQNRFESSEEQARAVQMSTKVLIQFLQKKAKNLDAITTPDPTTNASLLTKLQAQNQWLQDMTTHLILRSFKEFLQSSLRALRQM
Assay: Activity for inhibition of binding of IL-6 to receptor by peptide (IL-6 receptor expression cells, FITC labeled anti-IL-6 antibody)
Conditions: 5 μg of the peptide, 50 ng of IL-6, 10^5 IL-6 receptor expression cells, 4° C for one hour
Description: A human lymphocyte fraction was obtained from human peripheral blood with Ficoll-Paque (manufactured by Pharmacia-LKB). The fraction was reacted with a cultured supernatant of Epstein-Barr Virus producing cell strain B958 to transform the human lymphocytes to obtain IL-6 receptor expression cells.
1 mg of anti-human IL-6 antibody [Rabbit Anti-human Interleukin-6, manufactured by Genzyme Corp.] was dissolved in a 0.05M carbonate buffer solution (pH: 9.5) and to the resulting solution was added 10 μg of FITC [Fluorescein isothiocyanate, manufactured by Sigma Corp.]. The mixture was stirred at 4° C. overnight. The resulting solution was passed through PD-10 column (manufactured by Pharmacia-LKB) to obtain FITC labeled anti-IL-6 antibody as a firstly eluted fraction.
10^5 IL-6 receptor expression cells were suspended in 0.5 % BSA (bovine serum albumin, manufactured by Sigma Corp.)-PBS (a phosphate buffer solution containing 0.15 M sodium chloride, pH 7.4) and to the resulting suspension were added 50 ng of IL-6 (Human recombinant interleukin-6, manufactured by Genzyme Corp.) and 5 μg of the peptide obtained in any one of Examples 1 to 96. The suspension was allowed to stand at 4° C for one hour. Then, after washing the cells centrifugally with 0.5% BSA-PBS three times (1200 rpm, 5 min.), 1 μg of FITC labeled anti-IL-6 antibody was added and the mixture was allowed to stand at 4° C. for 30 minutes. After washing with 0.5% BSA-PBS three times, the intensity of fluorescence of the cells was determined. The binding inhibition activity of the peptide of each Example was evaluated, by taking the value obtained without addition of the peptide as a control and taking the value- obtained without addition of IL-6 as a blank, according to the following formula: [formula]

Molecule: CC(C)C[C@H](NC(=O)[C@H](Cc1c[nH]cn1)NC(=O)[C@@H](NC(=O)[C@@H](NC(=O)CNC(=O)CCCCCCCCCCCCCCCCCN)[C@@H](C)O)C(C)C)C(=O)N[C@@H](CC(C)C)C(=O)N[C@H](C(=O)N[C@@H](CC(=O)O)C(=O)N[C@H](C(=O)N1CCC[C@H]1C(=O)N1CCC[C@H]1C(=O)N[C@@H](CCC(=O)O)C(=O)N[C@@H](CCC(=O)O)C(=O)N1CCC[C@H]1C(=O)N[C@@H](CCC(N)=O)C(=O)N[C@@H](CC(C)C)C(=O)N[C@@H](CO)C(=O)N[C@@H](CS)C(=O)N[C@@H](Cc1ccccc1)C(=O)N[C@@H](CCCNC(=N)N)C(=O)N[C@@H](CCCCN)C(=O)NCC(=O)O)C(C)C)C(C)C [Example 12] (X1-GTVHLLVDVPPEEPQLSCFRKG-OH)
- Binding inhibition activity (%): 35%

Molecule: KRKFQNSPAEDFQEPCQYSQESD-NH2 [Example 22]
- Binding inhibition activity (%): 58%

Molecule: KKTSLPGDSVTLTCPGVEPED [Example 2]
- Binding inhibition activity (%): 35%

Molecule: RKFQNSPAEDFQEPCQYSQESK [Example 17]
- Binding inhibition activity (%): 60%

Molecule: RKFQNSPAEDFQEPCQYSQES [Example 21]
- Binding inhibition activity (%): 52%

Molecule: QALTTNKDDDNILFRDSA [Example 29]
- Binding inhibition activity (%): 41%

Molecule: WNSSFYRLRFELRYRAERSKK [Example 33]
- Binding inhibition activity (%): 58%

Molecule: CC(C)C[C@H](NC(=O)[C@H](Cc1c[nH]cn1)NC(=O)[C@@H](NC(=O)[C@@H](NC(=O)CNC(=O)CCCCCCCCCCCN)[C@@H](C)O)C(C)C)C(=O)N[C@@H](CC(C)C)C(=O)N[C@H](C(=O)N[C@@H](CC(=O)O)C(=O)N[C@H](C(=O)N1CCC[C@H]1C(=O)N1CCC[C@H]1C(=O)N[C@@H](CCC(=O)O)C(=O)N[C@@H](CCC(=O)O)C(=O)N1CCC[C@H]1C(=O)N[C@@H](CCC(N)=O)C(=O)N[C@@H](CC(C)C)C(=O)N[C@@H](CO)C(=O)N[C@@H](CS)C(=O)N[C@@H](Cc1ccccc1)C(=O)N[C@@H](CCCNC(=N)N)C(=O)N[C@@H](CCCCN)C(=O)N[C@@H](CCC(=O)O)C(=O)N[C@@H](CCC(=O)O)C(=O)N[C@@H](CCC(=O)O)C(=O)N[C@@H](CCC(=O)O)C(=O)N[C@@H](CCC(=O)O)C(=O)O)C(C)C)C(C)C [Example 11] (H-[12Ado]GTVHLLVDVPPEEPQLSCFRKEEEEE-OH)
- Binding inhibition activity (%): 34%

Molecule: DDDDDQALTTNKDDDNILFRDSAAAG-NH2 [Example 32]
- Binding inhibition activity (%): 44%

The next lines start with the values.

- Binding inhibition activity (%): 45%
Molecule: HSWNSSFYRLRFELRYRAERSK [Example 61]

- Binding inhibition activity (%): 68%
Molecule: WQDPHSWNSSFYRLRFELRYRAERSKK [Example 89]

- Binding inhibition activity (%): 65%
Molecule: KKPHSWNSSFYRLRFELRYRAERSK [Example 66]

- Binding inhibition activity (%): 68%
Molecule: PHSWNSSFYRLRFELRYRAERSKK [Example 65]

- Binding inhibition activity (%): 60%
Molecule: KDPHSWNSSFYRLRFELRYRAERSKD-NH2 [Example 78]

- Binding inhibition activity (%): 66%
Molecule: DDDDDQDPHSWNSSFYRLRFELRYRAERSKAAG-NH2 [Example 88]

- Binding inhibition activity (%): 54%
Molecule: PHSWNSSFYRLRFELRYRAERSK [Example 69]

- Binding inhibition activity (%): 58%
Molecule: DPHSWNSSFYRLRFELRYRAERSK [Example 77]

- Binding inhibition activity (%): 59%
Molecule: WQDPHSWNSSFYRLRFELRYRAERSK [Example 93]

- Binding inhibition activity (%): 25%
Molecule: DDDDDNPRWLSVTWQDPHSAAG-NH2 [Example 56]

- Binding inhibition activity (%): 55%
Molecule: DDDDDHSWNSSFYRLRFELRYRAERSKAAG-NH2 [Example 64]

- Binding inhibition activity (%): 60%
Molecule: KKHSWNSSFYRLRFELRYRAERSK [Example 58]

- Binding inhibition activity (%): 57%
Molecule: DDDDDPHSWNSSFYRLRFELRYRAERSKAAG-NH2 [Example 72]

- Binding inhibition activity (%): 37%
Molecule: DDDDDWNSSFYRLRFELRYRAERSKAAG-NH2 [Example 40]
